{"source": "ChEMBL document CHEMBL5055665", "about": "“Discovery of the Triazolo[1,5-a]Pyrimidine-Based Derivative WS-898 as a Highly Efficacious and Orally Bioavailable ABCB1 Inhibitor Capable of Overcoming Multidrug Resistance” (J Med Chem, 2021)", "key": {"[1]": {"test_system": "HEK293", "experiment": "Reversal of resistance to paclitaxel-induced cytotoxicity in human HEK293/ABCB1 cells assessed as reduction in paclitaxel IC50 at 1 uM preincubated for 4 hrs followed by paclitaxel addition and measured after 72 hrs by MTT assay (reference value: 91.40 +/- 23.32 nM)", "type": "functional, cell-based"}, "[2]": {"test_system": "HEK293", "experiment": "Reversal of resistance to paclitaxel-induced cytotoxicity in human HEK293/pcDNA3.1 cells assessed as reversal fold at 1 uM preincubated for 4 hrs followed by paclitaxel addition and measured after 72 hrs by MTT assay", "type": "functional", "details": "time 76 hrs"}, "[3]": {"test_system": "SW-620", "experiment": "Antitumor activity against human SW-620/AD300 cells xenografted in BALB/c nude mouse assessed as tumor growth inhibition at 30 mg/kg/day, ig administered for 21 days", "type": "functional", "design": "scale not given: the % may be the effect or the level left", "details": "time 21 day"}, "[4]": {"test_system": "SW-620", "experiment": "Reversal of resistance to paclitaxel-induced cytotoxicity in human SW-620/AD300 cells assessed as reversal fold at 2 uM preincubated for 4 hrs followed by paclitaxel addition and measured after 72 hrs by MTT assay relative to paclitaxel", "type": "functional", "details": "time 76 hrs"}, "[5]": {"biological_target": "ATP-dependent translocase ABCB1 (Homo sapiens, UniProt P08183)", "sequence (P08183 whole entry)": "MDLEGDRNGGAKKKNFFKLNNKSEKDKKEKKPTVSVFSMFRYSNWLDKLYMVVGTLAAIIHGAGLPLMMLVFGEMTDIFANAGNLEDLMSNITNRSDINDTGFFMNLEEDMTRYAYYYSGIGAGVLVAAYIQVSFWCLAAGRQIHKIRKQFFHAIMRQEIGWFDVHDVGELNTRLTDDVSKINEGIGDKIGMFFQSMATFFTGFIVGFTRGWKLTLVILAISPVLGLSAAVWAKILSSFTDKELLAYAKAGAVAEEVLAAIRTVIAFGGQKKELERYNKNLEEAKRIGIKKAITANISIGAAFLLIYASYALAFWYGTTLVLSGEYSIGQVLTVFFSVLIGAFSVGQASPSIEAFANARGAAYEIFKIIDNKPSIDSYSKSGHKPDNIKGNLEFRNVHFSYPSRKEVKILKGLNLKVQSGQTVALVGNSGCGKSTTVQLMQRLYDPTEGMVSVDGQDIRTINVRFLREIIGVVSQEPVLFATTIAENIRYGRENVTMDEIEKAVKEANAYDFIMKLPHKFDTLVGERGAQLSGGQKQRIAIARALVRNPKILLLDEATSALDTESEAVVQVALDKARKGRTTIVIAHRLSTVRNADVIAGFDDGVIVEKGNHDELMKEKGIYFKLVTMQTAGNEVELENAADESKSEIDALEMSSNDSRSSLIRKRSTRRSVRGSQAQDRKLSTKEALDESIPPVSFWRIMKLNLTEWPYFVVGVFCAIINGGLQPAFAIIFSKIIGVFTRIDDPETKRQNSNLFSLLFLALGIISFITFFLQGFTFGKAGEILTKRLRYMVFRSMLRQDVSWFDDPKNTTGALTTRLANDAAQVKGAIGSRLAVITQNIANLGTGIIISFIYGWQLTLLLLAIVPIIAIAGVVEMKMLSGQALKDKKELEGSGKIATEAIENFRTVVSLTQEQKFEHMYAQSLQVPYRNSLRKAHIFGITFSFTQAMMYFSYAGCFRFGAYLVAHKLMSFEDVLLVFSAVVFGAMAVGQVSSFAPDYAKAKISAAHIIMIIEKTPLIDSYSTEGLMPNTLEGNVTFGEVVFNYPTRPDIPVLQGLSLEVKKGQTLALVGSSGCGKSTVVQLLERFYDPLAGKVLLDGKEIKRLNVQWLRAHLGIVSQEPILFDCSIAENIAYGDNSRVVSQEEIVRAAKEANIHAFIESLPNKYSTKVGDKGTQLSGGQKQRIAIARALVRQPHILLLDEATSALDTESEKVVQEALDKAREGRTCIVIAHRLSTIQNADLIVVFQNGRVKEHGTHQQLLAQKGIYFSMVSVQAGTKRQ", "experiment": "Binding affinity to ABCB1 in human SW-620/AD300 cells assessed as thermal stabilization of protein at 2 uM incubated for 76 hrs by CETSA-based Western blot analysis", "type": "cell-based", "details": "sw-620, 76 h"}, "[6]": {"experiment": "Volume of distribution at steady state in Sprague-Dawley rat at 10 mg/kg, iv measured up to 24 hrs by LC-MS/MS analysis", "type": "ADME, organism-based", "details": "in vivo, read-out: Vdss"}, "[7]": {"test_system": "KB 3-1", "experiment": "Reversal of resistance to paclitaxel-induced cytotoxicity in human KB 3-1 cells assessed as reduction in paclitaxel IC50 at 2 uM preincubated for 4 hrs followed by paclitaxel addition and measured after 72 hrs by MTT assay (reference value: 4.54 +/- 1.59 nM)", "type": "functional, cell-based"}, "[8]": {"test_system": "KB 3-1", "experiment": "Reversal of resistance to paclitaxel-induced cytotoxicity in human KB 3-1 cells assessed as reversal fold at 1 uM preincubated for 4 hrs followed by paclitaxel addition and measured after 72 hrs by MTT assay relative to paclitaxel", "type": "functional", "details": "time 76 hrs"}, "[9]": {"test_system": "SW-620", "experiment": "Reversal of resistance to paclitaxel-induced cytotoxicity in human SW-620/AD300 cells assessed as reduction in paclitaxel IC50 at 2 uM preincubated for 4 hrs followed by paclitaxel addition and measured after 72 hrs by MTT assay (reference value: 4.23 +/- 0.50 uM)", "type": "functional, cell-based"}, "[10]": {"test_system": "SW-620", "experiment": "Effect on subcellular localization of ABCB1 in human SW-620/AD300 cells at 2 uM measured after 72 hrs by Hoechst 33258 staining based immunofluorescence assay", "type": "functional, cell-based"}, "[11]": {"test_system": "HEK293", "experiment": "Reversal of resistance to paclitaxel-induced cytotoxicity in human HEK293/pcDNA3.1 cells assessed as reduction in paclitaxel IC50 at 2 uM preincubated for 4 hrs followed by paclitaxel addition and measured after 72 hrs by MTT assay (reference value: 1.93 +/- 0.06 nM)", "type": "functional, cell-based"}, "[12]": {"test_system": "Mus musculus", "experiment": "Hepatotoxicity in BALB/c mouse xenografted with human SW-620/AD300 cells at 30 mg/kg/day, ig administered for 21 days in presence of paclitaxel", "type": "toxicity, organism-based", "details": "in vivo, po, 504 h, time 21 day"}, "[13]": {"test_system": "SW-620", "experiment": "Reversal of resistance to paclitaxel-induced cytotoxicity in human SW-620/AD300 cells assessed as reduction in paclitaxel IC50 at 1 uM preincubated for 4 hrs followed by paclitaxel addition and measured after 72 hrs by MTT assay (reference value: 4.23 +/- 0.50 uM)", "type": "functional, cell-based"}, "[14]": {"test_system": "KB-C2", "experiment": "Reversal of resistance to paclitaxel-induced cytotoxicity in human KB-C2 cells assessed as reduction in paclitaxel IC50 at 2 uM preincubated for 4 hrs followed by paclitaxel addition and measured after 72 hrs by MTT assay (reference value: 1886.37 +/- 243.05 nM)", "type": "functional, cell-based"}, "[15]": {"test_system": "SW-620", "experiment": "Antitumor activity against human SW-620/AD300 cells xenografted in BALB/c nude mouse assessed as increase in cells with nuclear pyknosis at 30 mg/kg/day, ig administered for 21 days in presence of paclitaxel by TUNEL staining based fluorescence microscopy", "type": "functional, organism-based", "details": "time 21.0 day"}, "[16]": {"test_system": "SW-620", "experiment": "Reversal of resistance to paclitaxel-induced cytotoxicity in human SW-620 cells assessed as reduction in paclitaxel IC50 at 1 uM preincubated for 4 hrs followed by paclitaxel addition and measured after 72 hrs by MTT assay (reference value: 7.69 +/- 2.78 nM)", "type": "functional, cell-based"}, "[17]": {"test_system": "KB-C2", "experiment": "Reversal of resistance to paclitaxel-induced cytotoxicity in human KB-C2 cells assessed as reversal fold at 2 uM preincubated for 4 hrs followed by paclitaxel addition and measured after 72 hrs by MTT assay relative to paclitaxel", "type": "functional", "details": "time 76 hrs"}, "[18]": {"test_system": "SW-620", "experiment": "Reversal of resistance to paclitaxel-induced cytotoxicity in human SW-620 cells assessed as reversal fold at 2 uM preincubated for 4 hrs followed by paclitaxel addition and measured after 72 hrs by MTT assay relative to paclitaxel", "type": "functional", "details": "time 76 hrs"}, "[19]": {"test_system": "SW-620", "experiment": "Antitumor activity against human SW-620/AD300 cells xenografted in BALB/c nude mouse assessed as tumor growth inhibition at 30 mg/kg/day, ig administered for 21 days in presence of paclitaxel", "type": "functional", "design": "scale not given: the % may be the effect or the level left", "details": "time 21 day"}, "[20]": {"experiment": "AUCinfinity in Sprague-Dawley rat at 10 mg/kg, iv measured up to 24 hrs by LC-MS/MS analysis", "type": "ADME, organism-based", "design": "dose 10 mg/kg, time < 24 hrs, route iv", "details": "in vivo"}, "[21]": {"experiment": "Clearance in Sprague-Dawley rat at 10 mg/kg, iv measured up to 24 hrs by LC-MS/MS analysis", "type": "ADME, organism-based", "details": "in vivo"}, "[22]": {"test_system": "SW-620", "experiment": "Reversal of resistance to paclitaxel-induced cytotoxicity in human SW-620/AD300 cells assessed as reversal fold at 1 uM preincubated for 4 hrs followed by paclitaxel addition and measured after 72 hrs by MTT assay relative to paclitaxel", "type": "functional", "details": "time 76 hrs"}, "[23]": {"test_system": "Mus musculus", "experiment": "Toxicity in BALB/c mouse xenografted with human SW-620/AD300 cells assessed as change in body weight at 30 mg/kg/day, ig administered 21 days in presence of paclitaxel", "type": "organism-based", "details": "in vivo, po, 504 h, time 21 day"}, "[24]": {"test_system": "HEK293", "experiment": "Reversal of resistance to paclitaxel-induced cytotoxicity in human HEK293/pcDNA3.1 cells assessed as reduction in paclitaxel IC50 at 1 uM preincubated for 4 hrs followed by paclitaxel addition and measured after 72 hrs by MTT assay (reference value: 1.93 +/- 0.06 nM)", "type": "functional, cell-based"}, "[25]": {"test_system": "KB 3-1", "experiment": "Reversal of resistance to paclitaxel-induced cytotoxicity in human KB 3-1 cells assessed as reduction in paclitaxel IC50 at 1 uM preincubated for 4 hrs followed by paclitaxel addition and measured after 72 hrs by MTT assay (reference value: 4.54 +/- 1.59 nM)", "type": "functional, cell-based"}, "[26]": {"test_system": "SW-620", "experiment": "Reversal of resistance to paclitaxel-induced cytotoxicity in human SW-620 cells assessed as reversal fold at 1 uM preincubated for 4 hrs followed by paclitaxel addition and measured after 72 hrs by MTT assay relative to paclitaxel", "type": "functional", "details": "time 76 hrs"}, "[27]": {"test_system": "SW-620", "experiment": "Effect on ABCB1 expression in human SW-620/AD300 cells at 2 uM measured upto 96 hrs by Western blot analysis", "type": "functional, cell-based"}, "[28]": {"test_system": "KB 3-1", "experiment": "Reversal of resistance to paclitaxel-induced cytotoxicity in human KB 3-1 cells assessed as reversal fold at 2 uM preincubated for 4 hrs followed by paclitaxel addition and measured after 72 hrs by MTT assay relative to paclitaxel", "type": "functional", "details": "time 76 hrs"}}, "note": "The source made the active and inactive calls. The calls are words filed in the database; no cut-off is given here."}
{"smiles": "Cc1cc(Nc2ccc(C(=O)/C=C/c3ccc4ccccc4c3)cc2)n2nc(SCc3nc4ccccc4[nH]3)nc2n1", "values": [{"measurement": "IC50", "setting": "[1]", "result": 9.21, "unit": "nM"}, {"measurement": "fold change (FC)", "setting": "[2]", "result": 1.14}, {"measurement": "Activity", "setting": "[3]", "result": 30, "unit": "%"}, {"measurement": "fold change (FC)", "setting": "[4]", "result": 846}, {"measurement": "Activity", "setting": "[5]", "result": "Active"}, {"measurement": "Vd", "setting": "[6]", "result": 0.114, "unit": "L/kg"}, {"measurement": "IC50", "setting": "[7]", "result": 3.53, "unit": "nM"}, {"measurement": "fold change (FC)", "setting": "[8]", "result": 1.11}, {"measurement": "IC50", "setting": "[9]", "result": 5, "unit": "nM"}, {"measurement": "Activity", "setting": "[10]", "result": "Active"}, {"measurement": "IC50", "setting": "[11]", "result": 1.31, "unit": "nM"}, {"measurement": "Activity", "setting": "[12]", "result": "Non-Toxic"}, {"measurement": "IC50", "setting": "[13]", "result": 28.1, "unit": "nM"}, {"measurement": "IC50", "setting": "[14]", "result": 3.67, "unit": "nM"}, {"measurement": "Activity", "setting": "[15]", "result": "Active"}, {"measurement": "IC50", "setting": "[16]", "result": 7.19, "unit": "nM"}, {"measurement": "fold change (FC)", "setting": "[17]", "result": 513.99}, {"measurement": "fold change (FC)", "setting": "[18]", "result": 1.1}, {"measurement": "Activity", "setting": "[19]", "result": 59, "unit": "%"}, {"measurement": "AUC(0-inf)", "setting": "[20]", "result": 9450, "unit": "ng·h/mL"}, {"measurement": "clearance", "setting": "[21]", "result": 17.7, "unit": "mL/min/kg"}, {"measurement": "fold change (FC)", "setting": "[22]", "result": 150.38}, {"measurement": "Activity", "setting": "[23]", "result": "Non-Toxic"}, {"measurement": "IC50", "setting": "[24]", "result": 1.69, "unit": "nM"}, {"measurement": "IC50", "setting": "[25]", "result": 4.09, "unit": "nM"}, {"measurement": "fold change (FC)", "setting": "[26]", "result": 1.06}, {"measurement": "Activity", "setting": "[27]", "result": "inactive"}, {"measurement": "fold change (FC)", "setting": "[28]", "result": 1.29}]}
